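Five concentrations, 48 hours, 96-well plates. Here, GI50 denotes the concentration required for 50% inhibition of growth.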 Activity calls are given as the source filed them. Rule as the data show it: active = GI50 up to about 1.1 µM and inactive = higher.
Tests used:
Assay in all cases: DTP human tumour cell line panel, 48 h
[1] = tested on: TK-10
[2] = tested on: SNB-75
[3] = tested on: PC-3
[4] = tested on: 786-0
[5] = tested on: M14
[6] = tested on: SNB-19
[7] = tested on: HT-29
[8] = tested on: SK-MEL-28
[9] = tested on: HL-60
[10] = tested on: SK-MEL-5
[11] = tested on: MDA-N
[12] = tested on: ACHN
[13] = tested on: KM12
[14] = tested on: SF-539
[15] = tested on: MOLT-4
[16] = tested on: SF-295
[17] = tested on: UACC-62
[18] = tested on: K562
[19] = tested on: A498
[20] = tested on: RXF 393

Measured: GI50

O=C1Nc2ccccc2/C1=N/Nc1nc(-c2ccccc2)cs1
inactive: [1] 31.9 µM | [2] 8.63 µM | [3] 19.2 µM | [4] 26.4 µM | [5] 23.1 µM | [6] 29.9 µM | [7] 27.7 µM | [8] 36.1 µM | [9] 2.45 µM | [10] 25.8 µM | [11] 62.4 µM | [12] 24.5 µM | [13] 30.3 µM | [14] 10.1 µM | [15] 45.2 µM | [16] 24.5 µM

C=CCOC(=O)c1c(C)[n+]([O-])c2cc(Cl)c(Cl)cc2[n+]1[O-]
inactive: [1] 29.4 µM | [17] 20.2 µM | [3] 31.6 µM | [4] 29.4 µM | [5] 18.2 µM | [6] 74.8 µM | [7] 18.2 µM | [8] 16.1 µM | [9] 16.6 µM | [10] 19 µM | [18] 27.9 µM | [11] 20.6 µM | [12] 23.6 µM | [13] 29.7 µM | [14] 21.8 µM | [15] 15.1 µM | [19] 27.5 µM | [16] 32.6 µM

COc1cc(/C=C/C(=O)OCC23CC[C@@]4(C(=O)O)CCC(C)[C@H](C)C4C2=CCC2[C@@]4(C)CC[C@H](O)C(C)(C)C4CC[C@]23C)ccc1O (stereo partly specified)
inactive: [1] 2.97 µM | [17] 19.6 µM | [3] 16.3 µM | [20] 12.7 µM | [4] 11 µM | [5] 23.2 µM | [6] 31.2 µM | [7] 20.4 µM | [8] 37.8 µM | [9] 23.4 µM | [10] 16.1 µM | [18] 27 µM | [11] 24.3 µM | [12] 3.05 µM | [13] 29.9 µM | [14] 14.7 µM | [15] 6.68 µM | [19] 32.4 µM | [16] 23.8 µM

C[Si](C)(C)C1=C2C(=O)c3ccccc3C(=O)C2=C([Si](C)(C)C)[C@@H]2CCCC[C@H]12
inactive: [1] > 100 µM | [17] > 100 µM | [3] > 100 µM | [20] > 100 µM | [5] > 100 µM | [6] > 100 µM | [8] > 100 µM | [9] > 100 µM | [10] > 100 µM | [18] > 100 µM | [11] > 100 µM | [12] > 100 µM | [14] > 100 µM | [15] > 100 µM | [19] > 100 µM | [16] > 100 µM

C/C(Cc1ccc2c(c1)OCO2)=N\N=c1\sc2ccccc2n1C
inactive: [1] > 100 µM | [17] > 100 µM | [3] 97.1 µM | [20] > 100 µM | [4] > 100 µM | [5] > 100 µM | [6] > 100 µM | [7] 42.8 µM | [8] > 100 µM | [9] > 100 µM | [10] 45.2 µM | [18] > 100 µM | [11] 83.2 µM | [12] > 100 µM | [13] > 100 µM | [14] > 100 µM | [15] 78.3 µM | [19] > 100 µM | [16] > 100 µM

O=C1CC2[C@@H](N3CCCC3)CCC(N1Cc1ccccc1)C2(O)O (stereo partly specified)
inactive: [1] > 100 µM | [17] > 100 µM | [3] > 100 µM | [20] > 100 µM | [4] > 100 µM | [5] > 100 µM | [6] > 100 µM | [7] > 100 µM | [8] > 100 µM | [9] > 100 µM | [10] > 100 µM | [18] > 100 µM | [11] > 100 µM | [12] > 100 µM | [13] > 100 µM | [14] > 100 µM | [15] > 100 µM | [19] > 100 µM | [16] > 100 µM

c1ccc(C(=NCCC2CNc3ccccc32)c2ccccc2)cc1 (stereo unspecified)
inactive: [17] > 100 µM | [3] > 100 µM | [20] > 100 µM | [4] > 100 µM | [5] > 100 µM | [6] > 100 µM | [7] > 100 µM | [8] > 100 µM | [10] > 100 µM | [18] > 100 µM | [11] > 100 µM | [12] > 100 µM | [13] > 100 µM | [15] > 100 µM | [19] > 100 µM | [16] > 100 µM

CC(NC(CC12CC3CC(CC(C3)C1)C2)C(N)=O)c1ccccc1 (stereo unspecified)
inactive: [1] 26.6 µM | [17] 20.3 µM | [3] 27 µM | [5] 21.1 µM | [6] 28.9 µM | [7] 21 µM | [8] 20 µM | [9] 10.1 µM | [10] 13.4 µM | [18] 17.5 µM | [11] 25.6 µM | [12] 20.9 µM | [15] 16.2 µM | [19] 14.6 µM | [16] 13 µM

O=C1C2=Cc3ccccc3OC2(O)Oc2ccc(O)cc21 (stereo unspecified)
inactive: [1] > 100 µM | [17] 61.8 µM | [2] 35.9 µM | [3] 73.3 µM | [20] > 100 µM | [4] > 100 µM | [5] > 100 µM | [7] > 100 µM | [8] > 100 µM | [10] 44.1 µM | [18] 28.1 µM | [11] > 100 µM | [12] 15.8 µM | [13] > 100 µM | [14] > 100 µM | [15] 62.5 µM | [19] > 100 µM | [16] > 100 µM

COC1OC(CO)C(O)C(OC(=O)c2cc(O)c(O)c(O)c2)C1OC(=O)c1cc(O)c(O)c(O)c1 (stereo unspecified)
inactive: [1] > 100 µM | [17] > 10 µM | [2] > 100 µM | [3] 95.5 µM | [20] > 100 µM | [4] > 100 µM | [5] 45.4 µM | [6] > 100 µM | [7] 65 µM | [8] > 100 µM | [9] 51.9 µM | [10] 36.7 µM | [18] 35.6 µM | [11] 25.1 µM | [12] 58.2 µM | [13] > 100 µM | [14] 83.6 µM | [15] 79.4 µM | [16] 20.2 µM

COC(=O)C1(NC(=O)C(Cc2ccccc2)N(C(=O)OC(C)(C)C)C(=O)OC(C)(C)C)CCCC1 (stereo unspecified)
inactive: [1] 32.7 µM | [17] 20.1 µM | [2] > 100 µM | [3] 31 µM | [4] > 10 µM | [5] > 100 µM | [6] > 100 µM | [8] > 100 µM | [9] 22.1 µM | [10] > 100 µM | [18] 43 µM | [11] > 100 µM | [12] > 10 µM | [14] > 100 µM | [15] 31.8 µM | [19] 25.8 µM

CCOC(=O)c1c2cccccc-2nc1Nc1cccc2c(C)ccnc12
inactive: [1] > 10 µM | [17] 9.77 µM | [3] 5.75 µM | [20] > 10 µM | [4] > 10 µM | [5] > 10 µM | [6] > 10 µM | [7] 4.89 µM | [8] > 10 µM | [9] 4.47 µM | [10] > 10 µM | [18] 4.01 µM | [11] > 10 µM | [12] 6.14 µM | [13] > 10 µM | [14] > 10 µM | [15] 5.16 µM | [19] > 10 µM | [16] > 10 µM

CCOP(=O)(OCC)C(c1ccc(F)cc1)N(C(=O)NC(F)(F)F)c1ccc(F)cc1 (stereo unspecified)
inactive: [1] > 100 µM | [2] > 100 µM | [3] > 100 µM | [20] > 100 µM | [4] > 100 µM | [5] > 100 µM | [6] > 100 µM | [7] > 100 µM | [8] > 100 µM | [9] > 100 µM | [10] > 100 µM | [18] > 100 µM | [11] > 100 µM | [12] > 100 µM | [13] > 100 µM | [14] > 100 µM | [15] > 100 µM | [16] > 100 µM

Nc1nc(Cl)cc(NCCO)n1
inactive: [1] > 100 µM | [17] > 100 µM | [2] > 100 µM | [3] > 100 µM | [20] > 100 µM | [4] > 100 µM | [5] > 100 µM | [6] > 100 µM | [7] > 100 µM | [8] > 100 µM | [10] > 100 µM | [18] > 100 µM | [11] > 100 µM | [12] > 100 µM | [13] > 100 µM | [14] > 100 µM | [15] > 100 µM | [19] > 100 µM | [16] > 100 µM

O=C1/C(=C\c2cccc(Oc3ccccc3)c2)S(=O)(=O)C(c2ccccc2)N1c1cc(Cl)ccc1Cl (stereo unspecified)
inactive: [1] 22.3 µM | [17] 15.2 µM | [2] 23.9 µM | [3] 32.4 µM | [20] 15.5 µM | [4] 16.1 µM | [5] 16.5 µM | [6] 16 µM | [7] 5.96 µM | [8] 17.3 µM | [10] 17 µM | [18] 3.74 µM | [11] 10.3 µM | [12] 18.8 µM | [13] 22.9 µM | [14] 5.43 µM | [15] 3.84 µM | [19] 39.2 µM | [16] 14.2 µM
